# Data from patent US20240043435A1, “TYK-2 INHIBITOR” (BEIGENE, LTD., priority 2020, published 2024).
# How the values were obtained:
# pSTAT5/GM-CSF = pSTAT5/GM-CSF cellular assay (JAK2 selectivity); type: cell-based; settings: for Selectivity fold (TYK2/JAK2): pSTAT5/GM-CSF IC50 over pSTAT4/IL-12 IC50
# [1] = system: JAK2, TYK2/p-STAT4 (Tyr693) activated by IL-12 in NK-92 cell line; experiment: IL-12-JAK2, TYK2/p-STAT4 (Tyr693) inhibition IC50 cellular assay; type: cell-based; settings: for IC50: NK92, Cellular assay, read-out: pSTAT4/IL-12 IC50; for Selectivity fold (TYK2/JAK2): Cellular assay, pSTAT5/GM-CSF IC50 vs pSTAT4/IL-12 IC50
# Method in brief: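 NK-92 cells were starved overnight without IL-2 and preincubated 1 h at 37° C with compound (8 doses, 10000–0.61 nM, 4-fold, 0.2% DMSO). They were then stimulated with IL-12 (40 ng/ml final) for 30 min. Lysate p-STAT4 (Tyr693) was read by AlphaLISA SureFire; IC50 from four-parameter logistic fit.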
# [2] = biological target: T1, TYK2-JH2 (aa 575-869, in-house) protein (Homo sapiens, UniProt P29597); experiment: TYK2-JH2 biochemical assay (HTRF probe displacement); type: binding; settings: Biochemical assay; read-out: TYK2-JH2 IC50
# T1 construct: TYK2-JH2 (aa 575-869, in-house) protein; made in house
# T1 sequence (P29597 575-869): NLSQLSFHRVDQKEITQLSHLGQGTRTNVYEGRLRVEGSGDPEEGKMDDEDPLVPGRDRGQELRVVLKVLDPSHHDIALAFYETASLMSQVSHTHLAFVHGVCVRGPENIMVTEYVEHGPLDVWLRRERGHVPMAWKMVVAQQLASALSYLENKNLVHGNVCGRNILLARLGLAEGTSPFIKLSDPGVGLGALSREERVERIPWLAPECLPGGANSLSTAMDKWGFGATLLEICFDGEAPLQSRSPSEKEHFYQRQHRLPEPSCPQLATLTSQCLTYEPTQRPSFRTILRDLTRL
# Method in brief: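 Recombinant TYK2-JH2 (0.2 nM) was pre-incubated 0.5 h at room temperature with compounds (10 doses, 5-fold dilution; 500× DMSO stocks from 500 uM) in 20 mM HEPES pH 7.5, 10 mM MgCl2, 0.005% BSA, 2 mM DTT, 0.015% Brij-35. Probe displacement was read by HTRF (ex337, em620/665 nm); IC50 from four-parameter logistic fit.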
Compound,IC50 (pSTAT5/GM-CSF),IC50 [1],IC50 [2],Selectivity fold (TYK2/JAK2) (pSTAT5/GM-CSF),Selectivity fold (TYK2/JAK2) [1]
"CC(=O)Nc1cc(Nc2cc(-c3ccccc3)cc(S(C)(=O)=O)n2)c(-c2ccn(C)n2)cn1 [Example J38, N-(5-(1-methyl-1H-pyrazol-3-yl)-4-((6-(methylsulfonyl)-4-phenylpyridin-2-yl)amino)pyridin-2-yl)acetamide]",> 10 µM,1.98 nM,0.024 nM,>5050 fold,
"COCc1ccc(-c2cnc(NC(C)=O)cc2Nc2cc(C)cc(S(C)(=O)=O)n2)nc1 [Example E2, N-(5-(methoxymethyl)-4′-((4-methyl-6-(methylsulfonyl)pyridin-2-yl)amino)-[2,3′-bipyridin]-6′-yl)acetamide]",5.81 µM,0.325 nM,0.017 nM,,17867 fold
"COCc1cc(Nc2cc(NC(C)=O)ncc2-c2ccc(C(C)(C)O)cn2)cc(S(C)(=O)=O)c1 [Example H16, N-(5-(2-hydroxypropan-2-yl)-4′-((3-(methoxymethyl)-5-(methylsulfonyl)phenyl)amino)-[2,3′-bipyridin]-6′-yl)acetamide]",> 10 µM,7.51 nM,0.028 nM,,>1331 fold
"CC(=O)Nc1cc(Nc2cc(C#N)cc(S(C)(=O)=O)n2)c(-c2ccn(C)n2)cn1 [Example J26, N-(4-((4-cyano-6-(methylsulfonyl)pyridin-2-yl)amino)-5-(1-methyl-1H-pyrazol-3-yl)pyridin-2-yl)acetamide]",> 10 µM,5.5 nM,0.023 nM,>1818 fold,
"CC(=O)Nc1cc(Nc2cc(OC3CC3)cc(S(C)(=O)=O)c2)c(-c2ccn(C)n2)cn1 [Example J36, N-(4-((3-cyclopropoxy-5-(methylsulfonyl)phenyl)amino)-5-(1-methyl-1H-pyrazol-3-yl)pyridin-2-yl)acetamide]",> 10 µM,5.05 nM,0.043 nM,>1980 fold,
"CC(=O)Nc1cc(Nc2cccc(S(N)(=O)=O)n2)c(-c2ccn(C)n2)cn1 [Example J4, N-(5-(1-methyl-1H-pyrazol-3-yl)-4-((6-sulfamoylpyridin-2-yl)amino)pyridin-2-yl)acetamide]",> 10 µM,4.94 nM,0.028 nM,>2024 fold,
"CC(=O)Nc1cc(Nc2cc(OC3CCCC3)cc(S(C)(=O)=O)n2)c(-c2ccn(C)n2)cn1 [Example J45, N-(4-((4-(cyclopentyloxy)-6-(methylsulfonyl)pyridin-2-yl)amino)-5-(1-methyl-1H-pyrazol-3-yl)pyridin-2-yl)acetamide]",> 10 µM,0.398 nM,0.028 nM,>25125 fold,
"CCOc1cc(Nc2cc(NC(C)=O)ncc2-c2ccc(F)cn2)nc(S(C)(=O)=O)c1 [Example F19, N-(4′-((4-ethoxy-6-(methylsulfonyl)pyridin-2-yl)amino)-5-fluoro-[2,3′-bipyridin]-6′-yl)acetamide]",> 10 µM,3.06 nM,0.036 nM,,>3267 fold
"CC(=O)Nc1cc(Nc2cc(OCC3CC3)cc(S(C)(=O)=O)n2)c(-c2ccc(N3C[C@@H](C)O[C@@H](C)C3)cn2)cn1 [Example C5, N-(4′-((4-(cyclopropylmethoxy)-6-(methylsulfonyl)pyridin-2-yl)amino)-5-((cis)-2,6-dimethylmorpholino)-[2,3′-bipyridin]-6′-yl)acetamide]",> 10 µM,21.9 nM,0.032 nM,,>456 fold
"COc1ccc(-c2cnc(NC(C)=O)cc2Nc2cc(OCC3CC3)cc(S(C)(=O)=O)n2)nn1 [Example A25, N-(4-((4-(cyclopropylmethoxy)-6-(methylsulfonyl)pyridin-2-yl)amino)-5-(6-methoxypyridazin-3-yl)pyridin-2-yl)acetamide]",> 10 µM,0.596 nM,0.027 nM,,>16778 fold
"CC(=O)Nc1cc(Nc2cc(OCCO)cc(S(C)(=O)=O)n2)c(-c2ccccn2)cn1 [Example B7, N-(4′-((4-(2-hydroxyethoxy)-6-(methylsulfonyl)pyridin-2-yl)amino)-[2,3′-bipyridin]-6′-yl)acetamide]",> 10 µM,5.58 nM,0.016 nM,,>1792 fold

# Continued, in another order:
IC50 (pSTAT5/GM-CSF),IC50 [1],IC50 [2],Compound,Selectivity fold (TYK2/JAK2) (pSTAT5/GM-CSF),Selectivity fold (TYK2/JAK2) [1]
> 10 µM,7.06 nM,0.035 nM,"CCn1ccc(-c2cnc(NC(C)=O)cc2Nc2cc(OC)cc(S(C)(=O)=O)c2)n1 [Example M9, N-(5-(1-ethyl-1H-pyrazol-3-yl)-4-((3-methoxy-5-(methylsulfonyl)phenyl)amino)pyridin-2-yl)acetamide]",>1416 fold,
0.379 µM,0.827 nM,0.029 nM,"COC1CN(c2cc(Nc3cc(NC(C)=O)ncc3-c3ccc4c(n3)OCC(C)(C)O4)nc(S(C)(=O)=O)c2)C1 [Example Q49, N-(5-(2,2-dimethyl-2,3-dihydro-[1,4]dioxino[2,3-b]pyridin-6-yl)-4-((4-(3-methoxyazetidin-1-yl)-6-(methylsulfonyl)pyridin-2-yl)amino)pyridin-2-yl)acetamide]",458 fold,
> 10 µM,16.6 nM,0.032 nM,"CC(=O)Nc1cc(Nc2cc(OCCO)cc(S(C)(=O)=O)n2)c(-c2ccn(C(C)C)n2)cn1 [Example M28, N-(4-((4-(2-hydroxyethoxy)-6-(methylsulfonyl)pyridin-2-yl)amino)-5-(1-isopropyl-1H-pyrazol-3-yl)pyridin-2-yl)acetamide]",>601 fold,
3.96 µM,0.584 nM,0.025 nM,"CC(=O)Nc1cc(Nc2cc(N3CCOCC3)cc(S(C)(=O)=O)n2)c(-c2ccc3c(n2)OCC(C)(C)O3)cn1 [Example Q22, N-(5-(2,2-dimethyl-2,3-dihydro-[1,4]dioxino[2,3-b]pyridin-6-yl)-4-((6-(methylsulfonyl)-4-morpholinopyridin-2-yl)amino)pyridin-2-yl)acetamide]",6779 fold,
> 10 µM,0.329 nM,0.026 nM,"CC(=O)Nc1cc(Nc2cncc(S(C)(=O)=O)n2)c(-c2ccc3c(n2)OC(C)(C)CO3)cn1 [Example Q28, N-(5-(3,3-dimethyl-2,3-dihydro-[1,4]dioxino[2,3-b]pyridine-6-yl)-4-((6-(methylsulfonyl)pyrazin-2-yl)amino)pyridine-2-yl)acetamide]",>30395 fold,
> 10 µM,4.33 nM,0.046 nM,"CC(=O)Nc1cc(Nc2cc(OC(C)C)cc(S(C)(=O)=O)c2)c(-c2ccn(C(C)C)n2)cn1 [Example M26, N-(4-((3-isopropoxy-5-(methylsulfonyl)phenyl)amino)-5-(1-isopropyl-1H-pyrazol-3-yl)pyridin-2-yl)acetamide]",>2309 fold,
3.98 µM,0.56 nM,0.037 nM,CO[C@H]1C[C@H](c2cc(Nc3cc(NC(C)=O)ncc3-c3ccc4c(n3)OCC(C)(C)O4)nc(S(C)(=O)=O)c2)C1 [Example Q54],7116 fold,
> 10 µM,1.15 nM,0.026 nM,"CC(=O)Nc1cc(Nc2cc(OCC3(C)COC3)cc(S(C)(=O)=O)n2)c(-c2ccc3c(n2)OCC(C)(C)O3)cn1 [Example Q98, N-(5-(2,2-dimethyl-2,3-dihydro-[1,4]dioxino[2,3-b]pyridin-6-yl)-4-((4-((3-methyloxetan-3-yl)methoxy)-6-(methylsulfonyl)pyridin-2-yl)amino)pyridin-2-yl)acetamide]",>8695 fold,
2.02 µM,0.626 nM,0.019 nM,"CC(=O)Nc1cc(Nc2cc(C3COCCO3)cc(S(C)(=O)=O)n2)c(-c2ccc3c(n2)OCC(C)(C)O3)cn1 (racemic) [Example Q50, (R/S)—N-(4-((4-(1,4-dioxan-2-yl)-6-(methylsulfonyl)pyridin-2-yl)amino)-5-(2,2-dimethyl-2,3-dihydro-[1,4]dioxino[2,3-b]pyridin-6-yl)pyridin-2-yl)acetamide]",3231 fold,
> 10 µM,4.61 nM,0.034 nM,"CC(=O)Nc1cc(Nc2nc(S(C)(=O)=O)cn(C)c2=O)c(-c2ccc3c(n2)OCC(C)(C)O3)cn1 [Example Q64, N-(5-(2,2-dimethyl-2,3-dihydro-[1,4]dioxino[2,3-b]pyridin-6-yl)-4-((4-methyl-6-(methylsulfonyl)-3-oxo-3,4-dihydropyrazin-2-yl)amino)pyridin-2-yl)acetamide]",>2169 fold,
> 10 µM,0.212 nM,0.039 nM,"COCCOc1cc(Nc2cc(NC(C)=O)ncc2-c2cc(C)n(C)n2)nc(S(C)(=O)=O)c1 [Example N5, N-(5-(1,5-dimethyl-1H-pyrazol-3-yl)-4-((4-(2-methoxyethoxy)-6-(methylsulfonyl)pyridin-2-yl)amino)pyridin-2-yl)acetamide]",>47169 fold,
